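Values below derive from 48-hour exposures of cells grown in 96-well plates, with endpoints linearly interpolated between the two concentrations bracketing the appropriate inhibition level. TGI marks complete inhibition of growth.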
How the values were obtained:
Test in all cases: NCI anticancer screen, dose series, 48 h
M14 melanoma = test system: M14 melanoma
NCI-H522 lung = test system: NCI-H522 lung
MALME-3M melanoma = test system: MALME-3M melanoma
RPMI-8226 leukemia = test system: RPMI-8226 leukemia
HOP-18 NSCLC = test system: HOP-18 NSCLC
OVCAR-3 ovarian = test system: OVCAR-3 ovarian
SN12C renal = test system: SN12C renal
SNB-78 CNS = test system: SNB-78 CNS
CCRF-CEM leukemia = test system: CCRF-CEM leukemia
SK-MEL-2 melanoma = test system: SK-MEL-2 melanoma
UACC-257 melanoma = test system: UACC-257 melanoma
DMS 273 small cell lung = test system: DMS 273 small cell lung
DMS 114 small cell lung = test system: DMS 114 small cell lung
KM20L2 colon = test system: KM20L2 colon
SF-295 CNS = test system: SF-295 CNS
LXFL 529 NSCLC = test system: LXFL 529 NSCLC
SR leukemia = test system: SR leukemia
OVCAR-5 ovarian = test system: OVCAR-5 ovarian
HOP-92 NSCLC = test system: HOP-92 NSCLC
UO-31 renal = test system: UO-31 renal
HT29 colon = test system: HT29 colon
COLO 205 colon = test system: COLO 205 colon
HL-60(TB) leukemia = test system: HL-60(TB) leukemia
786-0 renal = test system: 786-0 renal
RXF 393 renal = test system: RXF 393 renal
HCC-2998 colon = test system: HCC-2998 colon
SK-MEL-28 melanoma = test system: SK-MEL-28 melanoma
SF-539 CNS = test system: SF-539 CNS
LOX IMVI melanoma = test system: LOX IMVI melanoma
XF 498 CNS = test system: XF 498 CNS
NCI-H460 lung = test system: NCI-H460 lung
DLD-1 colon = test system: DLD-1 colon
U251 CNS = test system: U251 CNS
IGROV1 ovarian = test system: IGROV1 ovarian
SK-MEL-5 melanoma = test system: SK-MEL-5 melanoma
A549 NSCLC = test system: A549 NSCLC
EKVX NSCLC = test system: EKVX NSCLC
SNB-75 CNS = test system: SNB-75 CNS
NCI-H23 lung = test system: NCI-H23 lung
UACC-62 melanoma = test system: UACC-62 melanoma
SK-OV-3 ovarian = test system: SK-OV-3 ovarian
SW-620 colon = test system: SW-620 colon
RXF-631 renal = test system: RXF-631 renal
MOLT-4 leukemia = test system: MOLT-4 leukemia
K-562 leukemia = test system: K-562 leukemia
ACHN renal = test system: ACHN renal
KM12 colon = test system: KM12 colon
OVCAR-8 ovarian = test system: OVCAR-8 ovarian
SNB-19 CNS = test system: SNB-19 CNS
M19-MEL melanoma = test system: M19-MEL melanoma
A498 renal = test system: A498 renal
TK-10 renal = test system: TK-10 renal
SF-268 CNS = test system: SF-268 CNS
HCT-116 colon = test system: HCT-116 colon
HCT-15 colon = test system: HCT-15 colon
OVCAR-4 ovarian = test system: OVCAR-4 ovarian
NCI-H226 lung = test system: NCI-H226 lung
HOP-62 NSCLC = test system: HOP-62 NSCLC
CAKI-1 renal = test system: CAKI-1 renal

Measured: TGI

COc1ccc(NCC#N)cc1
75.8 µM: 786-0 renal
not listed: OVCAR-4 ovarian | NCI-H226 lung | HOP-62 NSCLC | CAKI-1 renal
> 100 µM: all other assays above

NC(=O)c1ncn2c1NCC1OC2C(O)C1O (stereo not given)
not listed: RPMI-8226 leukemia | NCI-H460 lung | HCT-15 colon
> 100 µM: all other assays above

C[C@]12CCc3nonc3C1CC[C@@H]1C2CC[C@]2(C)C(=O)/C(=N\O)CC12 (stereo not given in full)
32 µM: NCI-H522 lung
3.69 µM: HL-60(TB) leukemia
> 100 µM: all other assays above
